Test results published in ChEMBL document CHEMBL4602605, “Fluoroquinolones structural and medicinal developments (2013-2018): Where are we now?” (Bioorg Med Chem, 2019).
≈ marks a conversion by molar mass, not a printed value.

What was measured:
Staphylococcus aureus [1] = assay: Antimicrobial activity against methicillin-resistant Staphylococcus aureus incubated overnight by broth microdilution method; format: functional
Klebsiella pneumoniae = assay: Antimicrobial activity against Klebsiella pneumoniae incubated overnight by broth microdilution method; format: functional
Staphylococcus aureus [2] = assay: Antimicrobial activity against Staphylococcus aureus ATCC 33591 incubated for 24 hrs by microbroth dilution method; format: functional; settings: ATCC 33591, 24 h
Escherichia coli [3] = assay: Antimicrobial activity against Escherichia coli ATCC 8739 incubated for 24 hrs by microbroth dilution method; format: functional; settings: ATCC 8739, 24 h
Escherichia coli [4] = assay: Antimicrobial activity against nalidixic acid-resistant Escherichia coli clinical isolate incubated for 24 hrs by microbroth dilution method; format: functional
Aspergillus flavus = assay: Antimicrobial activity against Aspergillus flavus ATCC 9643 after 48 hrs by microbroth dilution method; format: functional; settings: ATCC 9643, 48 h
Staphylococcus aureus [5] = assay: Antimicrobial activity against Staphylococcus aureus ATCC 9253 incubated for 24 hrs by microbroth dilution method; format: functional; settings: ATCC 9253, 24 h
Penicillium chrysogenum = assay: Antimicrobial activity against Penicillium chrysogenum ATCC 10106 after 48 hrs by microbroth dilution method; format: functional; settings: ATCC 10106, 48 h
Candida albicans = assay: Antimicrobial activity against Candida albicans ATCC 10231 after 24 hrs by microbroth dilution method; format: functional; settings: ATCC 10231, 24 h
Escherichia coli [6] = assay: Antimicrobial activity against Escherichia coli O157:H7 incubated for 24 hrs by microbroth dilution method; format: functional; settings: O157:H7, 24 h
Listeria monocytogenes = assay: Antimicrobial activity against Listeria monocytogenes ATCC 19115 incubated for 24 hrs by microbroth dilution method; format: functional; settings: ATCC 19115, 24 h
Escherichia coli [7] = assay: Antimicrobial activity against Escherichia coli NCTC 11954 incubated for 24 hrs by microbroth dilution method; format: functional; settings: NCTC 11954, 24 h
Stachybotrys chartarum = assay: Antimicrobial activity against Stachybotrys chartarum IBT 7711 after 48 hrs by microbroth dilution method; format: functional; settings: IBT 7711, 48 h
Salmonella enterica = assay: Antimicrobial activity against Salmonella enterica ATCC 13312 incubated for 24 hrs by microbroth dilution method; format: functional; settings: ATCC 13312, 24 h
Pseudomonas aeruginosa = assay: Antimicrobial activity against Pseudomonas aeruginosa ATCC 9627 incubated for 24 hrs by microbroth dilution method; format: functional; settings: ATCC 9627, 24 h
B16 = assay: Growth inhibition of mouse B16 cells at 50 uM after 24 to 72 hrs by trypan blue staining based assay relative to control; format: functional; settings: read-out: GI
HeLa = assay: Growth inhibition of human HeLa cells at 50 uM after 24 to 72 hrs by trypan blue staining based assay relative to control; format: functional; settings: read-out: GI
[8] = Growth inhibition of mouse NIH/3T3 cells at 50 uM after 24 to 72 hrs by trypan blue staining based assay relative to control; format: cell-based, NIH3T3; settings: read-out: GI
HL-60 = assay: Growth inhibition of human HL60 cells at 50 uM after 24 to 72 hrs by trypan blue staining based assay relative to control; format: functional; settings: read-out: GI
Mycobacterium avium = assay: Antimicrobial activity against Mycobacterium avium incubated for 10 days by microbroth dilution method; format: functional; settings: 240 h
[9] = system: Mycobacterium tuberculosis; assay: Antimicrobial activity against Mycobacterium tuberculosis H37Rv incubated for 10 days by microbroth dilution method; format: functional; settings: 240 h
Mycolicibacter terrae = assay: Antimicrobial activity against Mycobacterium terrae incubated for 10 days by microbroth dilution method; format: functional; settings: 240 h

SMILES: C[C@H]1Cn2cc(C(=O)NCCC(=O)NCCC[C@@H]3NC(=O)[C@H](CCCNC(=N)N)NC(=O)[C@H](CCCNC(=N)N)NC(=O)[C@H](CCCNC(=N)N)NC(=O)[C@@H](Cc4c[nH]c5ccccc45)NC(=O)[C@H](Cc4c[nH]c5ccccc45)NC(=O)[C@H](Cc4c[nH]c5ccccc45)NC(=O)[C@H](Cc4c[nH]c5ccccc45)NC(=O)[C@H](CCCNC(=N)N)NC3=O)c(=O)c3cc(F)c(N4CCN(C)CC4)c(c32)O1
- MIC (Staphylococcus aureus [1]): 32 µg/mL (≈ 16.9 µM)
- MIC (Klebsiella pneumoniae): > 128 µg/mL

SMILES: COC[C@@H]1[C@H](OC(C)=O)[C@H](OC(C)=O)[C@@H](NC(=O)c2cn(C3CC3)c3c(OC)c(N4CCN(C)CC4)c(F)cc3c2=O)[C@H](OC(C)=O)[C@H]1OC(C)=O
- MIC (Staphylococcus aureus [2]): 111 µM (≈ 81.6 µg/mL)
- MIC (Escherichia coli [3]): 445 µM (≈ 326 µg/mL)
- MIC (Escherichia coli [4]): 445 µM (≈ 326 µg/mL)
- MIC (Aspergillus flavus): 55.7 µM (≈ 40.8 µg/mL)
- MIC (Staphylococcus aureus [5]): 55.7 µM (≈ 40.8 µg/mL)
- MIC (Penicillium chrysogenum): 445 µM (≈ 326 µg/mL)
- MIC (Candida albicans): 223 µM (≈ 163 µg/mL)
- MIC (Escherichia coli [6]): 55.7 µM (≈ 40.8 µg/mL)
- MIC (Listeria monocytogenes): 111 µM (≈ 81.6 µg/mL)
- MIC (Escherichia coli [7]): 111 µM (≈ 81.6 µg/mL)
- MIC (Stachybotrys chartarum): 445 µM (≈ 326 µg/mL)
- MIC (Salmonella enterica): 890 µM (≈ 652 µg/mL)
- MIC (Pseudomonas aeruginosa): 111 µM (≈ 81.6 µg/mL)

SMILES: COc1c(N2CCN(C)CC2)c(F)cc2c(=O)c(C(=O)N[C@H]3[C@H](O)[C@@H](O)[C@H](CO)[C@H](O)[C@@H]3O)cn(C3CC3)c12
- MIC (Staphylococcus aureus [2]): 159 µM (≈ 87.5 µg/mL)
- MIC (Escherichia coli [3]): 318 µM (≈ 175 µg/mL)
- MIC (Escherichia coli [4]): 636 µM (≈ 350 µg/mL)
- MIC (Aspergillus flavus): 636 µM (≈ 350 µg/mL)
- MIC (Staphylococcus aureus [5]): 159 µM (≈ 87.5 µg/mL)
- MIC (Candida albicans): < 9.9 µM
- MIC (Escherichia coli [6]): 39.7 µM (≈ 21.9 µg/mL)
- MIC (Listeria monocytogenes): 636 µM (≈ 350 µg/mL)
- MIC (Escherichia coli [7]): 159 µM (≈ 87.5 µg/mL)
- MIC (Stachybotrys chartarum): 636 µM (≈ 350 µg/mL)
- MIC (Salmonella enterica): 159 µM (≈ 87.5 µg/mL)
- MIC (Pseudomonas aeruginosa): 19.9 µM (≈ 11 µg/mL)

SMILES: O=C(CSc1nnc(CN2CCN(c3cc4c(cc3F)c(=O)c(C(=O)O)cn4C3CC3)CC2)o1)c1ccc(Cl)cc1
- inhibition of growth at 50 µM (B16): 100%
- inhibition of growth at 50 µM (HeLa): 100%
- inhibition at 50 µM [8]: 100%
- inhibition of growth at 50 µM (HL-60): 100%

SMILES: CCn1cc(C(=O)O)c(=O)c2cc(F)c(-c3cc4cc(Br)ccc4oc3=O)cc21
- MIC (Mycobacterium avium): 6.2 µg/mL (≈ 13.5 µM)
- MIC [9]: 6.2 µg/mL (≈ 13.5 µM)
- MIC (Mycolicibacter terrae): 6.2 µg/mL (≈ 13.5 µM)

SMILES: C[C@H]1Cn2cc(C(=O)NCCC(=O)NCCCCC[C@@H](N)C(=O)N[C@@H](CCCNC(=N)N)C(=O)N[C@@H](CCCNC(=N)N)C(=O)N[C@@H](CCCNC(=N)N)C(=O)N[C@@H](CCCNC(=N)N)C(=O)N[C@@H](Cc3c[nH]c4ccccc34)C(=O)N[C@@H](CCCNC(=N)N)C(=O)N[C@@H](Cc3c[nH]c4ccccc34)C(=O)N[C@@H](Cc3c[nH]c4ccccc34)C(=O)O)c(=O)c3cc(F)c(N4CCN(C)CC4)c(c32)O1
- MIC (Staphylococcus aureus [1]): 64 µg/mL (≈ 33.4 µM)
- MIC (Klebsiella pneumoniae): > 128 µg/mL

SMILES: C[C@H]1Cn2cc(C(=O)NCCC(=O)NCCC[C@@H]3NC(=O)[C@H](CCCNC(=N)N)NC(=O)[C@H](CCCNC(=N)N)NC(=O)[C@H](CCCNC(=N)N)NC(=O)[C@@H](Cc4c[nH]c5ccccc45)NC(=O)[C@H](Cc4c[nH]c5ccccc45)NC(=O)[C@H](Cc4c[nH]c5ccccc45)NC(=O)[C@H](Cc4c[nH]c5ccccc45)NC(=O)[C@H](CCCNC(=N)N)NC3=O)c(=O)c3cc(F)c(F)c(c32)O1
- MIC (Staphylococcus aureus [1]): 8 µg/mL (≈ 4.4 µM)
- MIC (Klebsiella pneumoniae): 32 µg/mL (≈ 17.6 µM)
